Where “and” joins values, the source holds several entries; their conditions need not be identical. Identical values can stand only once.
Test system: SARS-CoV-2
Assay: microbe, parasite or virus in culture
Format: cell-based

In the case of `O=c1ccn([C@@H]2O[C@H](CO)[C@@H](O)[C@H]2O)c(=S)[nH]1` [s2U, 2-thiouridine], the EC50 is reported as 2 µM and 2.2 µM and 1.8 µM and 2.9 µM and 1.9 µM and 2.5 µM.

From PMC10589713 (Proceedings of the National Academy of Sciences of the …, 2023)
